# Assay results: patent US20030008338A1, “Assay methods and kits therefor” (LumiTech (UK) Limited, priority 2000, published 2003)
# Experiments:
# Format in all cases: cell-based
# K562 cells = experiment: AK release bioluminescence assay, K562 cells incubated with ionomycin; set-up: cytolysis versus control cells at the lowest concentration: dose or concentration left out as unconfirmed
# Protocol: (§1) A number of different cell types have been tested for induction of cytotoxicity with soluble agents. Cytolysis is determined after incubation with the agent, when the cell membrane has lost integrity and AK can ‘leak’ out into the surrounding culture medium. The assay is performed by incubating non-microbial (e.g. mammalian) cells, either cell lines or primary cell types including isolated tumour cells, with the agonist(s) of choice. After an appropriate incubation time the cells are simply removed from the incubator and AK activity determined in the culture supernatant. If the cells have been cultured in clear bottomed, white walled plates (Perkin Elmer Life Sciences) in volumes no greater than 100 μl, then the plates are simply placed in a luminometer equipped with injection facilities and 150 μl of AKR added to each of the wells, where an integral reading of light output is measured over 1 second. When using luminometers without injectors the AKR can be added manually preferably using a multichannel pipette. The light output is read as soon after addition of reagent as possible. The increase in light output over the complete medium control is the result of the leakage of AK from damaged cells as a result of incubation with cytolytic inducing substances.
# Example 3: Ionomycin is a calcium ionophore that acts as a mobile ion carrier for Ca^2+. We investigated increasing concentrations of this agent on K562 cells. As with the previous examples, the cells were set up in 100 μl volumes in triplicate wells of a 96 well Isoplate™. The concentrations of ionomycin (Sigma) used were […]. Cells were incubated for three hours in the presence of the agent prior to determination of AK activity. The data shown in FIG. 7 are for the 1-second integral reading taken at time 0 using the Wallac MicroBeta Jet.
# U937 cells = experiment: AK release bioluminescence assay, U937 cells incubated with camptothecin
# Protocol: as §1
# Example 2: A second model known to induce secondary necrosis is the incubation of U937 cells (ECACC No: 87010802) with camptothecin (Sigma). The cells were set up in triplicate wells of a white Isoplate™ (Perkin Elmer Life Sciences) at serial doubling dilutions of cells with 1000 nM camptothecin. The cells were then incubated with the drug for 4 hours and AK activity was determined as outlined in example 1. […] In the control cells there was a slight increase in AK activity over the complete medium control, but the increase in the presence of the drug was much greater, nearly 3 fold (2.6).
# Cem-7 cells = experiment: AK (adenylate kinase) release bioluminescence assay, Cem-7 cells incubated with dexamethasone
# Protocol: as §1
# Example 1: We have investigated 37 different cell lines and models of apoptosis/necrosis induction. One of the first models investigated for this assay was the incubation of Cem-7 cells with dexamethasone. Two different experiments were performed: one experiment where cells at different cell numbers/well were incubated with one concentration of dexamethasone (500 nM, Sigma) for 48 and 72 hours, and another experiment where cells at 5000/well were incubated with increasing concentrations of the agent (0, 10, 25, 50, 75, 100, 150, 200 nM) for 72 hours. The cell suspensions were incubated in 100 μl in triplicate wells of a 96 well clear-bottomed white walled microtitre plate (Perkin Elmer Isoplate™). At the end of the incubation period the plates were assayed for AK activity using the Wallac Microbeta Jet, with 150 μl of AKR added and the RLUs (1 second integral) read at time 0 and every 5 minutes for 45 minutes. […] At 2500 cells per well the activity had increased by 71% from 15 913 RLUs at 48 hours to 27 266 RLUs at 72 hours.
# [1] = camptothecin from 50 to 1000 μM, cells at 2500/well
compound,measurement,setting,value
C[C@H](CCC(=O)O)C[C@H](C)C[C@H](C)C(=O)/C=C(\O)[C@H](C)C[C@H](C)C/C=C/[C@@H](C)[C@@H](O)[C@@H](C)[C@@H](O)C[C@@H]1CC[C@@](C)([C@H]2CC[C@@](C)([C@@H](C)O)O2)O1 [Ionomycin],AK activity with all concentrations of the agent,"K562 cells; FIG. 7, increasing concentrations of ionomycin",significant increase in AK activity
same,effect on AK activity with increasing concentrations,"K562 cells; ionomycin 1, 2, 3, 4 and 5 mM, three hours, time 0 reading",concentration dependent effect
same,cytolysis versus control cells at the lowest concentration,"K562 cells; lowest ionomycin concentration, three hours",significant increase in cytolysis
CC[C@@]1(O)C(=O)OCc2c1cc1n(c2=O)Cc2cc3ccccc3nc2-1 [camptothecin],increase in AK activity in the presence of the drug,"U937 cells; 1000 nM camptothecin, 4 hours",2.6 fold
same,cell numbers at which the increase in activity was seen,"U937 cells; 1000 nM camptothecin, 4 hours, serial doubling dilutions of cells",above 156 /well
same,concentration at which cytolysis appears,U937 cells; [1],100 µM
same,enzyme (AK) activity with increasing concentrations,U937 cells; [1],concentration dependent increase in enzyme activity
C[C@@H]1C[C@H]2[C@@H]3CCC4=CC(=O)C=C[C@]4(C)[C@@]3(F)[C@@H](O)C[C@]2(C)[C@@]1(O)C(=O)CO [dexamethasone],AK release,"Cem-7 cells; 200 nM dexamethasone, 72 hours, 5000 cells/well",16900 RLU
same,increase in AK activity from 48 hours to 72 hours,"Cem-7 cells; 500 nM dexamethasone, 2500 cells per well",71%
same,AK activity,"Cem-7 cells; 500 nM dexamethasone, 48 hours, 2500 cells per well",15 913 RLUs
same,AK activity,"Cem-7 cells; 500 nM dexamethasone, 72 hours, 2500 cells per well",27 266 RLUs
